Experimental data as given in US20180271863A1, “TARGETING P2 PURINERGIC RECEPTORS TO TREAT HEPATOCELLULAR CARCINOMA (HCC)” (Baylor College of Medicine, priority 2015, published 2018).

Tests used:
Format in all cases: cell-based, human
[1] = system: Huh7 cells; test: Western blotting for survivin in Huh7 cells
From the text: (§1) Total protein extracts were obtained by homogenizing cells in total lysis buffer and analyzed by Western blotting as described recently (Oncotarget 2015; 6:41162-41179). Next, Applicants tested whether extracellular nucleotide treatment may have an effect on YAP target genes important in hepatocellular carcinoma. […] Moreover, P2X3 antagonist (AF-353) pretreatment attenuated ATP mediated induction of survivin (FIG. 20G).

[2] = system: Huh7 cells; test: Western blotting for cleaved PARP (apoptosis marker); settings: antagonist treatment alone
From the text: Arrows point to BrdU-positive cells, expressed as a percentage of total cells. Data represents mean±SEM, n=3-6, *p<0.05 vs. untreated. […] Data represents mean±SD, n=3, *p<0.05 vs. untreated, #p<0.05.
Applicants' observations that P2X3 agonist 2-MeSATP treatment alone was sufficient to induce cyclin D3 expression (1.9 fold) and pre-treatment with an alternative P2X3 antagonist (A317491) attenuated ATP induced cyclin D3 expression in Huh7 cells further validated the role of P2X3 purinergic receptor activation in the induction of cell-cycle progression in HCC cells (FIGS. 11C-D). Furthermore, P2X3 antagonist treatment alone was sufficient to reduce the baseline BrdU-positive cells and cyclin protein expression in serum-free conditions, implicating P2X3 activation as a necessary facilitator of Huh7 cell cycle progression (FIGS. 11A-B).
Total protein extracts were obtained by homogenizing cells in total lysis buffer (50 mM Tris-HCl, pH 7.5, 0.5 M NaCl, 2 mM EGTA, 2 mM EDTA, 1.0% Triton X-100, 0.25% Deoxycholate, 1 m/ml pepstatin, 1.0 m/ml leupeptin, 1.0 m/ml aprotinin, 1.0 mM phenylmethylsulfonyl fluoride, 1.0 mM Dithiothreitol, 2.0 mM activated Na3VO4, and 2.0 mM NaF) and centrifuging at 14,000 rpm for 10 min (4° C.). Equal amounts of total proteins as determined by BCA protein Assay (Pierce, Rockford, Ill.) were analyzed by Western blotting. […]

[3] = system: PLC/PRF/5 cells; test: BrdU incorporation (proliferation) in PLC/PRF/5 cells; settings: SFM 24 hours, ATP 24 hours
Protocol: To determine whether P2 purinergic receptor activation influences HCC cell proliferation, BrdU incorporation was assessed in HCC cells maintained in SFM for 24 hours and treated with ATP for 24 hours. ATP treatment alone was sufficient to induce proliferation in each of these cell lines (Huh7, 34%; Hep3B, 46%; SNU-387, 47% and PLC/PRF/5, 24%), identifying nucleotides as liver cancer cell mitogens (FIG. 7A).
Normal human primary hepatocytes isolated from healthy adults (no known history of HCC) in suspension or freshly-frozen prior to shipment (Cryoport Systems, CA) were purchased from Triangle Research Labs, NC. Fresh hepatocytes were plated on collagen-coated tissue culture plates or glass coverslips in Williams E complete media with additives (10% fetal bovine serum, 2 mM glutamine, […] insulin, 4 ng/ml glucagon, […] transferrin, 2.5 ng/ml sodium selenite, 10,000 U/ml penicillin, […] streptomycin, 50 g/ml gentamycin) for 3 h to ensure hepatocyte adherence to plates. […]
Formalin-fixed and paraffin embedded liver sections from HCC patients were analyzed by immunohistochemistry with anti-P2X3 antibody (Abcam, Cambridge, Mass.). […] BrdU positive cells were counted and expressed as a percentage of the total number of cells in ten randomly selected high-power fields (20×) per coverslips.

[4] = system: Huh7 cells; test: Western blotting for hippo pathway phosphorylation (Mst1/2, LATS, Yap) in Huh7 cells; settings: for Mst1/2 phosphorylation: Huh7, serum free 24 hours, as early as 5 minutes, sustained at 4 hours; for induction of Yap phosphorylation: Huh7, 12 h treatment
Protocol: Total protein extracts were obtained by homogenizing cells in total lysis buffer and analyzed by Western blotting as described recently (Oncotarget 2015; 6:41162-41179). […] Therefore, Applicants performed in vitro studies to test whether activation of P2 purinergic receptors may affect the hippo pathway and its downstream effectors. Huh7 cells—human derived hepatocellular carcinoma cells—maintained in serum free media for 24 hours—were treated with P2 purinergic receptor agonists. […] ADP treatment alone was also sufficient to induce LATs phosphorylation (2 h-1.7 fold, 4 h-1.5 fold) (FIG. 20B). […] Hippo kinases Mst1/2 and Lats1/2 work through a phosphorylation cascade to phosphorylate Yap, thereby retaining Yap in the cytoplasm. In spite of nucleotide-mediated Mst1/2 and Lats phosphorylation, ATP, ADP and ATPγS treatment was individually insufficient to induce Yap phosphorylation. […] Similarly, ATP treatment alone increased nuclear YAP protein expression (1.7 fold) (FIG. 20D).

[5] = system: Huh7 cells; test: Western blotting of Huh7 nuclear fractions for YAP; settings: 24 h treatment
From the text: Total protein extracts were obtained by homogenizing cells in total lysis buffer and analyzed by Western blotting as described recently (Oncotarget 2015; 6:41162-41179). Hippo kinases Mst1/2 and Lats1/2 work through a phosphorylation cascade to phosphorylate Yap, thereby retaining Yap in the cytoplasm. In spite of nucleotide-mediated Mst1/2 and Lats phosphorylation, ATP, ADP and ATPγS treatment was individually insufficient to induce Yap phosphorylation. […] Similarly, ATP treatment alone increased nuclear YAP protein expression (1.7 fold) (FIG. 20D).

[6] = system: Huh7 cells; test: qRT-PCR of YAP target genes in Huh7 cells; settings: 24 h treatment
From the text: as §1, with “RNA was isolated from human livers or cells and was amplified” for “protein extracts were obtained”, “qRT-PCR” for “homogenizing cells in total lysis buffer and analyzed by Western blotting”

Structure (SMILES)	effect on ATP mediated induction of survivin ([1]; AF-353 pretreatment)	cleaved PARP protein expression (marker of apoptosis) [2]	proliferation (BrdU incorporation) induced by ATP [3] [%]	Mst1/2 phosphorylation [4]	induction of Yap phosphorylation [4]	nuclear YAP protein expression compared to untreated cells [5] [fold]	AREG gene expression [6] [fold]	CTGF gene expression [6] [fold]	Sox9 gene expression [6] [fold]	cyclin E gene expression [6] [fold]	survivin gene expression [6] [fold]	survivin protein expression ([1]; ATPγS treatment alone) [fold]
COc1cc(C(C)C)c(Oc2cnc(N)nc2N)cc1I [AF-353]	attenuated	increased	–	–	–	–	–	–	–	–	–	–
Nc1ncnc2c1ncn2[C@@H]1O[C@H](COP(=O)(O)OP(=O)(O)OP(=O)(O)O)[C@@H](O)[C@H]1O [ATP]	–	–	24	significantly induced	insufficient	1.7	5.1	3.4	2.0	2.1	1.1	–
Nc1ncnc2c1ncn2[C@@H]1O[C@H](COP(=O)(O)OP(=O)(O)OP(O)(O)=S)[C@@H](O)[C@H]1O [ATPγS]	–	–	–	significantly induced	insufficient	2.8	3.3	2.2	1.6	2.0	1.1	1.8
